Experimental data reported in publication PMC6462819 (Science immunology, 2018).

Biological target: T1, recombinant GSDMD (human, full-length) (Homo sapiens, UniProt P57764)
T1 sequence (P57764 1-484): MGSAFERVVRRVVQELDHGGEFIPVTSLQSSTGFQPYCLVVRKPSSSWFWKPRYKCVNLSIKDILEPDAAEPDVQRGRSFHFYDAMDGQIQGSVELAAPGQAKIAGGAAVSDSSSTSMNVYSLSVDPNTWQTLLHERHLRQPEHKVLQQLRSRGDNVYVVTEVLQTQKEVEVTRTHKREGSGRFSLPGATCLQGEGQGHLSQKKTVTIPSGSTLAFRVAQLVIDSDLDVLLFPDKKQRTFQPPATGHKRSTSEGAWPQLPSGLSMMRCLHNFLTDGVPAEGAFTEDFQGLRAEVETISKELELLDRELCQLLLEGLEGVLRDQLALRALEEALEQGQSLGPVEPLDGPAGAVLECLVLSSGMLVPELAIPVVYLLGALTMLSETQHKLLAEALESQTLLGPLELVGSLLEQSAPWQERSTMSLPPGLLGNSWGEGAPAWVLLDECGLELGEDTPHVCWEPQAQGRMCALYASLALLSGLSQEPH
Assay: surface plasmon resonance, Biacore T200
Format: binding

COc1nccnc1NS(=O)(=O)c1ccc(NC(=O)/C=C/c2ccc([N+](=O)[O-])s2)cc1 [necrosulfonamide]
Kd: 32 ± 3.8 µM
